This note sets out measurements from PMC5357622, “Chelation Motifs Affecting Metal-dependent Viral Enzymes: N′-acylhydrazone Ligands as Dual Target Inhibitors of HIV-1 Integrase and Reverse Transcriptase Ribonuclease H Domain” (Frontiers in Microbiology, 2017).

Series [1] concerns the target T1, HIV-1 RT-associated RNase H (Human immunodeficiency virus type 1 group M subtype B, UniProt P03366).
T1 construct: Human immunodeficiency virus type 1 heterodimeric RT was expressed and purified; made in house
Briefly: HIV-1 RT-associated RNase H assay (fluorescent RNA/DNA hybrid). It is filed as biochemical. The procedure:
Human immunodeficiency virus type 1 heterodimeric RT was expressed and purified as previously described ([Esposito et al., 2011]; [Meleddu et al., 2014]). The HIV-1 RT-associated RNase H activity was measured as described ([Corona et al., 2014a]; [Meleddu et al., 2015]). Briefly, 20 ng of HIV-1 RT was incubated in 100 μL reaction volume containing 50 mM Tris-HCl (pH 7.8), 6 mM MgCl2, 1 mM DTT, 80 mM KCl, hybrid RNA/DNA (5′-[…]-3′-Fluorescein, 5′-[…]-3′-Dabcyl) and 2 nM RT. The reaction mixture was incubated for 1 h at 37°C; the reaction was stopped by addition of EDTA and products were measured with a Victor 3 (Perkin Elmer model 1420-051) equipped with filters for 490/528 nm (excitation/emission wavelength).

Series [2] addresses HIV-1 IN in presence of LEDGF/p75 (Human immunodeficiency virus type 1 group M subtype B, UniProt P03366). Description: HIV-1 IN/LEDGF HTRF LEDGF-dependent integration assay. In general terms: In TR-FRET formats the signal depends on donor and acceptor labels being close together.
Experimental: The IN-LEDGF/p75 dependent assay allows to measure the inhibition of 3′ processing and strand transfer IN reactions in presence of recombinant LEDGF/p75 protein, as previously described ([Tintori et al., 2015]). Briefly, 50 nM IN was pre-incubated with increasing concentration of compounds for 1 h at room temperature in reaction buffer containing 20 mM HEPES pH 7.5, 1 mM DTT, 1% glycerol, 20 mM MgCl2, 0.05% Brij-35 and 0.1 mg/ml BSA. DNA donor substrate, DNA acceptor substrate and 50 nM LEDGF/p75 protein were added and incubated at 37°C for 90 min. After the incubation, 4 nM of Europium-Streptavidin were added to the reaction mixture and the HTRF signal was recorded using a Perkin Elmer Victor 3 plate reader using a 314 nm for excitation wavelength and 668 and 620 nm for the wavelength of the acceptor and the donor substrates emission, respectively.
A further series deals with HIV-1 (strain IIIB). Description: Cell-based HIV assay in MT-4 cells (MTT, virus-induced cytopathic effect). Particulars: Human immunodeficiency virus 1, IIIB. The procedure:
(§1) The procedure to determine anti-HIV activity and cytotoxicity of the compounds in human lymphocyte MT-4 cells was published elsewhere ([Pannecouque et al., 2008]). Briefly, serial dilutions of the compounds were added to 96-well plates containing the MT-4 cells. To the virus-infected wells, 100–300 CCID50 (50% cell culture infectious dose-50%) of HIV-1 (strain IIIB) or HIV-2 (strain ROD) was added. The mock-infected wells received the compounds without the virus. After 5 days incubation, the spectrophotometric MTT assay was performed to determine the effect of the compounds on the viability of the mock- and HIV-infected cells.
On the technique in general: Protection from cytopathic effect is a common read-out in antiviral testing.

A further series can be described thus: in vitro. It is filed as cell-based. The conditions noted are these: human. The procedure: as §1

Several values for one entry are separate records, joined by “and”; a condition that tells them apart may be missing. Equal values may be shown once. Where only a bound is given, the exact number is not on record here.

Chain of HIV-1 IN in presence of LEDGF/p75 (O75475 whole entry, other chains not shown): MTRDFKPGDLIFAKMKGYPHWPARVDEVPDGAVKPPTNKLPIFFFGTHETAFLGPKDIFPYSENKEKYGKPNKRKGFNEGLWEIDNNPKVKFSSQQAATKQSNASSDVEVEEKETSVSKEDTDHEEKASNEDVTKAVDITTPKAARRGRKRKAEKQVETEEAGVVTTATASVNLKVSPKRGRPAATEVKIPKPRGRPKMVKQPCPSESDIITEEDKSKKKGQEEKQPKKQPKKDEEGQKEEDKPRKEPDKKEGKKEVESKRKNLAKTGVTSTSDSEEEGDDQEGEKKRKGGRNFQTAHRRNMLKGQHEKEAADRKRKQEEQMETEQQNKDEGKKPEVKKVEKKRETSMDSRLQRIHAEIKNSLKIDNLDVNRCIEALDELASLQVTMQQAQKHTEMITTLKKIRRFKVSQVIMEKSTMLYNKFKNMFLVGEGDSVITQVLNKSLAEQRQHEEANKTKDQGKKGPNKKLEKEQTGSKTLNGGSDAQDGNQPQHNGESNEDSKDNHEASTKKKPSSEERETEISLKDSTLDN

For `CCCCCCCC(=O)N/N=C/c1cccc(O)c1O` [Compound 1, N′-2,3-dihydroxy benzylidene heptyl hydrazone], the IC50 in series [1] was ~60 µM and 61 µM; in series [2] it was more than 100 µM.

Regarding `CCCCCCCC(=O)N/N=C/c1cccc(OC)c1O` [Compound 2], the IC50 in series [1] is ~60 µM and 62 µM.

With `O=C(N/N=C/c1cccc(O)c1O)c1ccccc1` [Compound 3], in series [1], the “HIV-1 RNase H IC50” value is listed as “completely abolished” and the concentration for half-maximal inhibition (IC50) was more than 100 µM. For the same compound, the IC50 in series [2] was more than 100 µM.

Consider `COc1cccc(/C=N/NC(=O)c2ccccc2)c1O` [Compound 4], for which, in series [1], the “HIV-1 RNase H IC50” value is “completely abolished” and the IC50 is more than 100 µM.

Regarding `O=C(N/N=C/c1cccc(O)c1O)c1ccccc1O` [Compound 5], in series [1], the “HIV-1 RNase H IC50” value is given as “No inhibition” and the IC50 is more than 100 µM.

`COc1cccc(/C=N/NC(=O)c2ccccc2O)c1O` [Compound 6]: the IC50 in series [1] is 37 ± 5 µM; in series [2], more than 100 µM.

`O=C(N/N=C/c1ccc(O)c(O)c1O)c1ccccc1O` [Compound 7]: the IC50 was 25 µM and 25.3 µM in series [1]; 7.1 ± 0.2 µM in series [2].

On to `O=C(N/N=C/c1cc(O)c(O)cc1O)c1ccccc1O` [Compound 8], for which the IC50 in series [1] was determined as 8.8 ± 3.1 µM; in series [2] it was 30 ± 1 µM.

As to `O=C(N/N=C/c1c(O)cc(O)cc1O)c1ccccc1O` [Compound 9], the IC50 is 9.6 ± 3.4 µM in series [1] and 9.4 ± 0.4 µM in series [2].

As for `O=C(N/N=C/c1cc(O)c(O)c(O)c1)c1ccccc1O` [Compound 10], the concentration for half-maximal inhibition (IC50) in series [1] is 4.1 ± 0.2 µM; in series [2] it was more than 100 µM.

`O=C(N/N=C/c1ccccc1)c1cc(O)c(O)c(O)c1` [Compound 11]: the figures for the IC50 in series [1] and in series [2] were 2.6 ± 0.6 µM and more than 100 µM, respectively.

Take `O=C(N/N=C/c1ccccn1)c1cc(O)c(O)c(O)c1` [Compound 12]: the IC50 was 3.2 ± 0.5 µM in series [1] and more than 100 µM in series [2].

With `O=C(N/N=C/c1ccccc1O)c1cc(O)c(O)c(O)c1` [Compound 13], the IC50 in series [1] was 2.3 ± 0.7 µM; in series [2] it was more than 100 µM.

With `O=C(N/N=C/c1cccc(O)c1O)c1cc(O)c(O)c(O)c1` [Compound 14], the IC50 is 3.1 ± 0.5 µM in series [1] and more than 100 µM in series [2].

On to `COc1cccc(/C=N/NC(=O)c2cc(O)c(O)c(O)c2)c1O` [Compound 15], for which the half-inhibitory concentration (IC50) is 0.92 ± 0.02 µM in series [1] and more than 100 µM in series [2].

In the case of `O=C(N/N=C/c1cc(O)ccc1O)c1cc(O)c(O)c(O)c1` [Compound 16], the IC50 in series [1] worked out at 2.1 ± 0.1 µM; in series [2], 69 ± 5 µM.

For the compound `COc1ccc(O)c(/C=N/NC(=O)c2cc(O)c(O)c(O)c2)c1` [Compound 17], the half-inhibitory concentration (IC50) is 2 ± 0.5 µM in series [1] and more than 100 µM in series [2].

Regarding `O=C(N/N=C/c1ccc(O)cc1O)c1cc(O)c(O)c(O)c1` [Compound 18], the values for the concentration for half-maximal inhibition (IC50) in series [1] and in series [2] were 1.7 ± 0.1 µM and 16 ± 3 µM, respectively. The “RNase H inhibition potency relative to IN activity” value in series [1] (RNase H versus IN) is “ninefold more potently”. In addition, the EC50 in the series on HIV-1 (strain IIIB) (MT4, 120 h, read-out: EC50 for HIV-1 (50% protection from virus-induced cytopathic effect), 5 days, mean ± SD of two independent tests) turned out to be 17 ± 4 µM. The same compound gave an inhibition at 25 µM with HIV-1 (strain IIIB) (MT4, at a concentration of 25 μM) of 55 to 82%. In “in vitro”, the CC50 at 5 days was found to be 61 µM.

For `COc1cc(C(=O)N/N=C/c2cc(O)ccc2O)cc(OC)c1OC` [Compound 19], the IC50 in series [1] and in series [2] was more than 100 µM each time.

Take `O=C(N/N=C/c1ccc(O)c(O)c1O)c1cc(O)c(O)c(O)c1` [Compound 20]: the IC50 in series [1] is 0.175 µM and 0.17 µM; in series [2], 0.085 ± 0.025 µM.

On to `O=C(N/N=C/c1cc(O)c(O)cc1O)c1cc(O)c(O)c(O)c1` [Compound 21], for which the half-inhibitory concentration (IC50) in series [1] came to 0.62 ± 0.1 µM; in series [2] it was 0.08 ± 0.01 µM.

Turning to `O=C(N/N=C/c1c(O)cc(O)cc1O)c1cc(O)c(O)c(O)c1` [Compound 22], the values for the IC50 in series [1] and in series [2] were 9.7 ± 1.6 µM and 1.8 ± 0.1 µM, respectively.

Turning to `O=C(N/N=C/c1cc(O)c(O)c(O)c1)c1cc(O)c(O)c(O)c1` [Compound 23], the results for the IC50 in series [1] and in series [2] were 0.18 ± 0.03 µM and 0.165 ± 0.025 µM, respectively.

In the case of `CCOC(=O)C(=O)CC(=O)/C=C/c1cccn1Cc1ccc(F)cc1` [RDS1643, reference compound], the IC50 in series [1] was found to be 7.5 ± 0.9 µM.

One may read the IC50 as the concentration that inhibits the measured activity by half. By EC50 is commonly meant the midpoint of the concentration-response curve. Usually inhibition stands for the drop in the measured response relative to a control, in per cent. In general, CC50 refers to the concentration that lowers cell viability or growth by half. Higher therefore signals lower toxicity to the cells.
